In the case of `CCn1ncc2c(-c3cncc(Cl)c3)c(/C=C/C(=O)O)c(C(C)C)nc21` [Example 228, (2E)-3-[4-(5-Chloro-3-pyridyl)-1-ethyl-6-isopropyl-1H-pyrazolo[3,4-b]pyridin-5-yl]acrylic acid], the melting point fell in the range of 218 to 220.5 °C.
On to `CCn1ncc2c(-c3cncc(C)c3)c(CCC(=O)O)c(C3CCC3)nc21` [Example 230, 3-[6-cyclobutyl-1-ethyl-4-(5-methyl-3-pyridyl)-1H-pyrazolo[3,4-b]pyridin-5-yl]propanoic acid], for which the melting point was 212 to 213 °C.
Turning to `CCn1ncc2c(-c3cncc(Cl)c3)c(/C=C/C(=O)O)c(COC)nc21` [Example 231, (2E)-3-[4-(5-chloro-3-pyridyl)-1-ethyl-6-(methoxymethyl)-1H-pyrazolo[3,4-b]pyridin-5-yl]acrylic acid], the melting point was 187 to 188 °C.
With `CCOCc1nc2c(cnn2CC)c(-c2cncc(C)c2)c1/C=C/C(=O)O` [Example 234, (2E)-3-[6-(Ethoxymethyl)-1-ethyl-4-(5-methyl-3-pyridyl)-1H-pyrazolo[3,4-b]pyridin-5-yl]acrylic acid] the figure was 187 to 188 °C.
Consider `CCn1ncc2c(-c3cncc(C)c3)c(/C=C/C(=O)O)c(CC(C)(C)C)nc21` [Example 236, (2E)-3-[6-(2,2-Dimethylpropyl)-1-ethyl-4-(5-methyl-3-pyridyl)-1H-pyrazolo[3,4-b]pyridin-5-yl]acrylic acid], for which the melting point fell in the range of 216 to 217.5 °C.
Under `CCn1ncc2c(-c3cncc(C)c3)c(/C=C/C(=O)O)c(COC(C)C)nc21` [Example 240, (2E)-3-[1-Ethyl-6-(isopropoxymethyl)-4-(5-methyl-3-pyridyl)-1H-pyrazolo[3,4-b]pyridin-5-yl]acrylic acid] stands 198 to 199 °C; under `CCn1ncc2c(-c3cncc(C)c3)c(CCC(=O)O)c(CC3CC3)nc21` [Example 241, 3-[6-(Cyclopropylmethyl)-1-ethyl-4-(5-methyl-3-pyridyl)-1H-pyrazolo[3,4-b]pyridin-5-yl]propanoic acid], 184 to 185 °C.
With `CCn1ncc2c(-c3ccnc(C)c3)c(/C=C/C(=O)O)c(C(C)C)nc21` [Example 242, (2E)-3-[1-Ethyl-6-isopropyl-4-(2-methyl-4-pyridyl)-1H-pyrazolo[3,4-b]pyridin-5-yl]acrylic acid] the figure was 260 to 262.5 °C.
Under `CCC(CC)NC(=O)c1c(-c2ccccc2)nc2c(cnn2CC)c1-c1cncc(C)c1` [Example 245, 1-Ethyl-N-(1-ethylpropyl)-4-(5-methyl-3-pyridyl)-6-phenyl-1H-pyrazolo[3,4-b]pyridine-5-carboxamide] stands 170 to 172 °C.
For `CCn1ncc2c(-c3cncc(C)c3)c(C(=O)NCCOc3ccccc3)c(-c3ccccc3)nc21` [Example 246, 1-Ethyl-4-(5-methyl-3-pyridyl)-N-(2-phenoxyethyl)-6-phenyl-1H-pyrazolo[3,4-b]pyridine-5-carboxamide], the melting point is 175 to 176 °C.
With `CCn1ncc2c(-c3cncc(C)c3)c(C(=O)NCC3CCCCC3)c(-c3ccccc3)nc21` [Example 247, N-(Cyclohexylmethyl)-1-ethyl-4-(5-methyl-3-pyridyl)-6-phenyl-1H-pyrazolo[3,4-b]pyridine-5-carboxamide] the figure was 197 to 199 °C; with `CCn1ncc2c(-c3cncc(C)c3)c(CCC(=O)O)c(C3CC3)nc21` [Example 343, 3-[6-Cyclopropyl-1-ethyl-4-(5-methyl-3-pyridyl)-1H-pyrazolo[3,4-b]pyridin-5-yl]propanoic acid], 205 to 207 °C; with `CCn1ncc2c(-c3cncc(C)c3)c(CCC(=O)O)c(CC(C)C)nc21` [Example 344, 3-[1-Ethyl-6-isobutyl-4-(5-methyl-3-pyridyl)-1H-pyrazolo[3,4-b]pyridin-5-yl]propanoic acid], 190 to 191 °C.

Broadly, the melting point is the temperature, or range, at which the solid turns liquid.
